Entries after “also recorded” stand apart in the source; their conditions may differ.

The subject of the experiment is NCI-60 cell lines. In kind it is cell-based, human.
Turning to WTVGGRV, the “Cell Line the peptide is associated with (peptide recovered from phage library selection on this NCI-60 cell line)” value is listed as “A498 Renal”.
With QLVSGSL, the “Cell Line (NCI-60 cell line the peptide is associated with)” value is “HCT-116 Colon”.
For VAASVRE, the “Cell Line (NCI-60 cell line the peptide and its motif are associated with)” value is given as “OVCAR-3 Ovarian”.
Take MSNLAAV: the “Cell Line (NCI-60 cell line the peptide is associated with)” value is listed as “COLO-205-Colon”.
With GRVKPGA, the “Cell Line (NCI-60 cell line the peptide and its motif are associated with)” value is on record as “DU-145 Prostate”.
On the same count and under the same terms, the figure for GSGYFIT is 786-0 Renal.
On to PVGGVLL, for which the “Cell Line with which the peptide (and its tripeptide motif) is associated” value (shortened to “Cell Line with which the peptide”) is “A549-Lung”.
With RYSTLLR, the “Cell Line with which the peptide” value is on record as “K-562-Leukemia”.
As for SDLGLRR, the “Cell Line (NCI-60 cell line the peptide and its motif are associated with)” value was “DU-145 Prostate”.
For the substance GLVTAPL, the “Cell Line (NCI-60 cell line the peptide is associated with)” value is “COLO-205-Colon”.
As for VLFSAGS, the “Cell Line with which the peptide” value is reported as “K-562-Leukemia”.
Still for that read-out and setting: the entry for RFTRSSG is “A549-Lung”.
For AAVTVVR, the “Cell Line (NCI-60 cell line the peptide is associated with)” value is “KM-12C Colon”.
As for GGSFSGL, the “Cell Line with which the peptide” value is reported as “A549-Lung”.
For the substance AGLGLLD, the “Cell Line (NCI-60 cell line the peptide and its motif are associated with)” value is “SK-OV-3-3 Ovarian”.
Consider LVYSGRL, for which the “Cell Line (NCI-60 cell line the peptide is associated with)” value is “SW620-Colon”.
For YATLGSS, the “Cell Line (NCI-60 cell line the peptide and its motif are associated with)” value was “PC3 Prostate”.
Still for that read-out and setting: for GVLSDRS the value was “SK-MEL-2 Melanoma”; for LPRRAVF, “DU-145 Prostate”.
As for WRLAGLG, the “Cell Line the peptide is associated with (peptide recovered from phage library selection on this NCI-60 cell line)” value is listed as “NCI/ADR-RES Breast”.
PRSSYNE: the “Cell Line with which the peptide” value was “H460-Lung”.
As to IRVSAVV, the “Cell Line the peptide is associated with (peptide recovered from phage library selection on this NCI-60 cell line)” value is reported as “HS 578 T Breast”.
Turning to GSSVSLG, the “Cell Line the peptide is associated with (peptide recovered from phage library selection on this NCI-60 cell line)” value is “BT-549 Breast”.
Regarding EQLSGVR, the “Cell Line with which the peptide” value is reported as “CCRF-CEM Leukemia”.
For the substance SRASDVT, the “Cell Line (NCI-60 cell line the peptide is associated with)” value is recorded as “SW620-Colon”.
DLVGRVR: the “Cell Line the peptide is associated with (peptide recovered from phage library selection on this NCI-60 cell line)” value is given as “BT-549 Breast”.
Take GGSRGYR: the “Cell Line the peptide is associated with (peptide recovered from phage library selection on this NCI-60 cell line)” value is reported as “UO31 Renal”.
LGRVHVW: the “Cell Line (NCI-60 cell line the peptide is associated with)” value is listed as “HT-29 Colon”.
On the same count and under the same terms, for YGSGGRG the value was “HT-29 Colon”.
With TWHAGGI, the “Cell Line the peptide is associated with (peptide recovered from phage library selection on this NCI-60 cell line)” value was “ACHN Renal”.
Still for that read-out and setting: for AFFMGLR the value was “ACHN Renal”.
VYGWGGS: the “Cell Line (NCI-60 cell line the peptide and its motif are associated with)” value was “DU-145 Prostate”.
As for GRVGRDG, the “Cell Line the peptide is associated with (peptide recovered from phage library selection on this NCI-60 cell line)” value is “A498 Renal”.
For the substance GRLAAGS, the “Cell Line the peptide is associated with (peptide recovered from phage library selection on this NCI-60 cell line)” value is listed as “MCF-7 Breast”.
Consider GEHLGGS, for which the “Cell Line with which the peptide” value was “SR Leukemia”.
PRLGRLL: the “Cell Line the peptide is associated with (peptide recovered from phage library selection on this NCI-60 cell line)” value is on record as “TK-10 Renal”.
Regarding SLVSPRT, the “Cell Line (NCI-60 cell line the peptide and its motif are associated with)” value was “OVCAR-5 Ovarian”.
Same read-out and setting: the entry for DVIARGW is “UACC 257 Melanoma”; for GSITGGS it is “IGROV1 Ovarian”.
For the substance LELLSVV, the “Cell Line (NCI-60 cell line the peptide is associated with)” value was “SNB-75 CNS”.
For the substance LGGLSER, the “Cell Line (NCI-60 cell line the peptide and its motif are associated with)” value is listed as “SK-OV-3-3 Ovarian”.
In the case of DELGSVQ, the “Cell Line the peptide is associated with (peptide recovered from phage library selection on this NCI-60 cell line)” value is recorded as “TK-10 Renal”.
Consider SGGRFVP, for which the “Cell Line the peptide is associated with (peptide recovered from phage library selection on this NCI-60 cell line)” value is recorded as “MDA-MB-231 Breast”.
With VGSVKAS, the “Cell Line (NCI-60 cell line the peptide and its motif are associated with)” value is given as “PC3 Prostate”.
Take LRAVEFL: the “Cell Line (NCI-60 cell line the peptide is associated with)” value was “MALME-3M Melanoma”.
As to RDGAVNL, the “Cell Line (NCI-60 cell line the peptide and its motif are associated with)” value is reported as “UACC 257 Melanoma”.
Consider LELGRLL, for which the “Cell Line with which the peptide” value was “HL-60-Leukemia”.
The same measure, in the same setting: for RGSHLVP the value was “CCRF-CEM Leukemia”.
Take FISAGGW: the “Cell Line the peptide is associated with (peptide recovered from phage library selection on this NCI-60 cell line)” value was “MDA-MB-231 Breast”.
For GCDGGSA, the “Cell Line with which the peptide” value is reported as “H23-Lung”.
As for RAAVIHT, the “Cell Line (NCI-60 cell line the peptide is associated with)” value is on record as “MALME-3M Melanoma”.
For SARQGGR, the “Cell Line (NCI-60 cell line the peptide and its motif are associated with)” value was “M14 Melanoma”.
WQVSGVR: the “Cell Line (NCI-60 cell line the peptide is associated with)” value was “KM-12C Colon”.
For VLASLSG, the “Cell Line (NCI-60 cell line the peptide and its motif are associated with)” value was “IGROV1 Ovarian”.
On to GPSWATV, for which the “Cell Line (NCI-60 cell line the peptide is associated with)” value is “LOX-IMVI Melanoma”.
Turning to GLGSCAP, the “Cell Line the peptide is associated with (peptide recovered from phage library selection on this NCI-60 cell line)” value was “RXF393 Renal”.
For the substance AVYRAGR, the “Cell Line with which the peptide” value was “H522-Lung”.
The same measure, in the same setting: the entry for RLAVSGY is “H522-Lung”.
For the substance GRLAVVA, the “Cell Line (NCI-60 cell line the peptide is associated with)” value was “HT-29 Colon”.
The same measure, in the same setting: for PQGRGVK the value was “SNB-75 CNS”.
On to DRASSWA, for which the “Cell Line (NCI-60 cell line the peptide and its motif are associated with)” value is “A498 Renal”.
Turning to GLVRGFP, the “Cell Line with which the peptide” value is “SR Leukemia”.
Same read-out and setting: the entry for FDRGVEA is “K-562-Leukemia”.
For the substance GWHGPSH, the “Cell Line with which the peptide” value is “A549-Lung”.
Turning to EGARASD, the “Cell Line with which the peptide” value is recorded as “Hop-92-Lung”.
The same measure, in the same setting: for CQGLVLQ the value was “K-562-Leukemia”.
As to HVRGRVA, the “Cell Line (NCI-60 cell line the peptide and its motif are associated with)” value is reported as “SK-MEL-5 Melanoma”.
For LGYYGAV, the “Cell Line the peptide is associated with (peptide recovered from phage library selection on this NCI-60 cell line)” value was “T-47D Breast”.
AGLSGGT: the “Cell Line with which the peptide” value is given as “EKVX-Lung”.
Take LLRLSLA: the “Cell Line with which the peptide” value is “H23-Lung”.
The same measure, in the same setting: for GAHGLVR the value was “SR Leukemia”.
On to AGLTIGI, for which the “Cell Line (NCI-60 cell line the peptide is associated with)” value was “SNB-19 CNS; also recorded: SF-539 CNS”.
On the same count and under the same terms, for SKYNLRS the value was “HT-29 Colon”; for YLGRRVS, “SW620-Colon”.
Turning to ADIGAGG, the “Cell Line with which the peptide” value is on record as “HL-60-Leukemia”.
The same measure, in the same setting: for WGWRASS the value was “A549-Lung”.
As to RVSSDPI, the “Cell Line (NCI-60 cell line the peptide and its motif are associated with)” value is listed as “SK-OV-3-3 Ovarian”.
Same read-out and setting: the entry for FSKMRAS is “DU-145 Prostate”.
As to RGSWAGV, the “Cell Line (NCI-60 cell line the peptide is associated with)” value is recorded as “HT-29 Colon”.
For YGSVALR, the “Cell Line (NCI-60 cell line the peptide is associated with)” value was “H522-Lung”.
For the substance RLLSAFG, the “Cell Line (NCI-60 cell line the peptide is associated with)” value is on record as “HCT-15 Colon”.
As for SVLGGRL, the “Cell Line with which the peptide” value is “EKVX-Lung”.

(Values after patent US7781565B2 (priority 2006, dated 2010).)
